{"source": "patent US20230193181A1", "about": "“3D Tissue Printing” (Oxford University Innovation Limited, priority 2020, published 2023)", "key": {"[1]": {"conditions": "reported in clinic; cited from earlier work"}, "[2]": {"test_system": "printed neural tissue arrays (astrocytes and RFP-NPCs in Matrigel)", "test": "Neurotoxicity test using printed neural tissue arrays", "method": "FIG. 20a, The experimental process of drug testing using printed neural tissue arrays. From left to right: 2D cultured astrocytes and RFP-NPCs were harvested and added to Matrigel for the preparation of bio-ink with a cell density ratio of 3:1 (astrocytes vs RFP-NPCs) and total cell density of 4×10^7 mL^−1. The prepared bio-ink were printed into droplet arrays with individual droplet size around 100 μm. On the next day, cancer chemotherapy drugs were added to the culture medium. The neurotoxicity of the drugs were assessed after a further 24 hrs. FIG. 20b, Fluorescent images of neural tissues treated with DMSO (control) and cancer chemotherapy drugs with different reported neurotoxicity risks: 5-Fluorouracil (minor), Carboplatin (moderate), Taxol (high). […] FIG. 20c, Comparison of the neurotoxicity of different chemotherapy drugs.\nNeurotoxicity of cancer chemotherapy drugs occurs frequently in clinic and often limit the dose of chemotherapy. We tested three chemotherapy drugs that are reported in clinic with low, moderate and high risks of neurotoxicity, using printed droplet arrays containing neural tissues (astrocytes and NSCs in Matrigel)."}, "RFP-hNSCs": {"test_system": "RFP-hNSCs", "test": "Toxicity test of DPhPC on hNSCs", "type": "cell-based, human", "conditions": "DPhPC at 100 μg/mL or 400 μg/mL in neural maintenance medium; three days of culture", "method": "RFP-hNSCs were cultured in neural maintenance medium containing no lipid (control) or DPhPC at either 100 μg/mL or 400 μg/mL. Arrows indicate the formation of neural rosette-like structures under all conditions after three days of culture."}, "printed neural tissues": {"test_system": "printed neural tissues", "test": "Fluo-4 calcium imaging of printed neural tissues after KCl stimulation", "type": "cell-based, human", "conditions": "KCl 60 mM, 65 days ppd", "text": "FIG. 3d-f show spontaneous calcium oscillations (FIG. 3d), single-cell traces (FIG. 3e) and correlation coefficient analysis (FIG. 3f) of printed neural tissues at 44 days ppd. The data reveal increased neural communication after a longer period of differentiation. […] Intensities are false-coloured according to the ‘fire’ Look Up Table of Fiji. […] Images are false-coloured as in FIG. 3g. Scale bars are all 100 μm.\nCalcium imaging and correlation analysis. A Fluo-4 Direct™ calcium assay kit (F10471, Invitrogen) was used according to the manufacturer's instructions to measure calcium activities. Briefly, printed neural tissues were transferred to 48-well plates and incubated with NMM/Fluo-4 calcium imaging reagents (v:v, 1:1) for 1 h at 37° C. Both spontaneous and evoked calcium recordings were recorded at 37° C. by fluorescence confocal microscopy (Leica SP5) at 1 frame per 2 seconds for FIG. 3a, 1 frame per 15 seconds FIG. 3d and 1 frame per 1 second for FIG. 3g. Pre-processing and analysis of time-lapse calcium recordings were performed in MATLAB. […] Individual neuronal somata were manually selected as ROIs, and the pixel mask in the local area was refined using ICA-based de-mixing of fluorescent transients. ΔF/F0 at time t was calculated with a moving baseline as: […]"}, "[3]": {"test_system": "Astrocytes in droplet arrays", "test": "Fluo-4 calcium live imaging of astrocytes in droplet arrays after KCl stimulation", "type": "cell-based, human", "conditions": "KCl 60 mM", "method": "FIG. 19a, human primary cortical astrocyte printed in an array. Astrocytes were printed at a cell density of 4×10^7 mL^−1 in Matrigel. Left: Calcein AM (CAM) staining of printed astrocytes at 2 days post printing. The dashed box indicates the area of the higher magnification image on the right (top two images in the middle). Top right row: higher magnification images of astrocyte printed in Matrigel (CAM staining image and the corresponding brightfield image) and image of astrocytes (brightfield with CAM staining) printed in agarose as the matrix. Bottom right row: immunostaining images of printed astrocytes with astrocyte markers vimentin (yellow) and GFAP (magenta). FIG. 19b, Spontaneous calcium fluctuations of astrocytes in printed droplet arrays. Left: Individual time-point frames of Fluo-4 calcium live imaging. Right: single-cell traces of the cells indicated by the colour-coded circles in the images (left panel). […] Proportions of astrocytes with spontaneous calcium fluctuations were measured at four conditions: 2D monolayer cell culture, and printed astrocyte, astrocyte-NPC, and astrocyte-MDA (a metastatic breast cancer cell line) droplet arrays. n>20 for all four conditions. *: P<0.05, **: P<0.01, ***: P<0.001 and ****: P<0.0001. […]"}, "iPSCs derived NPCs": {"test_system": "iPSCs derived NPCs", "test": "Oil toxicity test using iPSCs derived NPCs", "type": "cell-based", "conditions": "oil on top of medium of 2D cultured NPCs, 5 days; live (CAM)/dead (PI) staining on day 5", "method": "2D cultured NPCs were added with oil on top of medium and cultured for 5 days. Life (CAM, in green) and Dead (PI, in read) staining were conducted on day 5.\nBioreactors have been used in macro-scale to support biological active environment. However, nanoliter-sized bioreactors would offer the potential to study biological events with much small number of cells, and the potential application in high throughput assays. We firstly optimised the oil surrounding the nano-bioreactors, which plays a large role in the viability of the encapsulated neural tissues. […] The optimised conditions allow the growth of individual low-nanoliter sized neural tissue inside each nano-bioreactor, without interaction with cells in other nano-bioreactors. With differentiation medium, neural process outgrowth and neural migration were observed and assessed in nano-bioreactors. This technique have the potential for a low-cost HTS, as minimal cells and reagents are required. It also offers the potential application to study biological events where a small organised cluster of cells were involved, such as early stage embryogenesis and tumorigenesis."}}, "note": "Entries after “also recorded” stand apart in the source; their conditions may differ."}
{"smiles": "O=c1[nH]cc(F)c(=O)[nH]1", "note": "[5-Fluorouracil]", "values": [{"measurement": "reported neurotoxicity risk", "setting": "[1]", "result": "minor"}]}
{"smiles": "N.N.O=C([O-])C1(C(=O)[O-])CCC1.[Pt+2]", "note": "[Carboplatin]", "values": [{"measurement": "reported neurotoxicity risk", "setting": "[1]", "result": "moderate"}, {"measurement": "neurotoxicity against neural cells in printed neural tissue arrays", "setting": "[2]; drugs added to culture medium the day after printing, assessed after a further 24 hrs, astrocytes:RFP-NPCs 3:1, n>25, P<0.05", "result": "higher toxicity against neural cells compared to 5-Fluorouracil"}]}
{"smiles": "CC(C)CCCC(C)CCCC(C)CCCC(C)CC(=O)OC[C@H](COP(=O)([O-])OCC[N+](C)(C)C)OC(=O)CC(C)CCCC(C)CCCC(C)CCCC(C)C", "note": "(stereo partly drawn) [DPhPC, 1,2-diphytanoyl-sn-glycero-3-phosphocholine]", "values": [{"measurement": "toxicity of DPhPC on hNSCs (neural rosette-like structure formation vs no-lipid control)", "setting": "RFP-hNSCs", "result": "No obvious differences"}]}
{"smiles": "[Cl-].[K+]", "note": "[KCl]", "values": [{"measurement": "calcium response of printed neural tissues to KCl", "setting": "printed neural tissues", "result": "induced a rapid calcium transient in a cell; also recorded: evoked rapid Ca^2+ transients"}, {"measurement": "calcium response of astrocytes in droplet arrays to KCl stimulation", "setting": "[3]", "result": "responsive"}]}
{"smiles": "CC(=O)O[C@H]1C(=O)[C@@]2(C)[C@H]([C@H](OC(=O)c3ccccc3)[C@]3(O)C[C@H](OC(=O)[C@H](O)[C@@H](NC(=O)c4ccccc4)c4ccccc4)C(C)=C1C3(C)C)[C@]1(OC(C)=O)CO[C@@H]1C[C@@H]2O", "note": "[Taxol]", "values": [{"measurement": "reported neurotoxicity risk", "setting": "[1]", "result": "high"}, {"measurement": "neurotoxicity against neural cells in printed neural tissue arrays", "setting": "[2]; human, 24 h", "result": "higher toxicity against neural cells compared to 5-Fluorouracil"}]}
{"smiles": "CCCCCCCC/C=C\\CCCCCCCC(=O)OCC(COC(=O)CCCCCCC/C=C\\CCCCCCCC)OC(=O)CCCCCCC/C=C\\CCCCCCCC", "note": "[glyceryl trioleate]", "values": [{"measurement": "oil toxicity to NPCs", "setting": "iPSCs derived NPCs", "result": "not toxic"}]}
